Measurements from paper PMC9833666, “Designing and identifying β-hairpin peptide macrocycles with antibiotic potential” (Science Advances, 2023).
Entries after “also recorded” stand apart in the source; their conditions may differ. Read-outs that look alike come from different tables or passages of the source. Bridge positions count the residues as written; N and C are the ends. Ends that are not written are not given here. Peptide text beside a SMILES is read from it.

Experiments:
[1] = system: Acinetobacter baumannii AB5075
[2] = system: Single-donor human red blood cells; test: Hemolysis assay; type: cell-based
Method in brief: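 Peptides at 300 μg/ml (SySA library) or 128 μg/ml (SySA-5 optimization library) were incubated in triplicate with washed single-donor RBCs (1 × 10^9 cells/ml) for 3 h at 37 °C. Supernatant A540 was background-normalized to PBS and expressed relative to 1% Triton X-100 (100% hemolysis).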

[3] = system: gram-positive and gram-negative pathogens, including colistin-resistant strains; test: MIC against pathogen panel (tables S4 and S5, not shown); type: cell-based
Description: MICs were performed by a modifiedClinical and Laboratory Standards Institute) procedure. Stock peptides were diluted to 2.56 mg/ml in 50 μl of 0.01% acetic acid containing 0.2% bovine serum albumin. Peptide was then serially diluted twofold in this solution, and 10 μl of each dilution was added to a polypropylene 96-well plate (Corning, ref. no. 3879) in triplicate. Separately, E. coli W3110 or A. baumannii AB5075 was grown overnight in 5 ml of standard MH at 37°C. Cells from these cultures were diluted to a concentration of 5 × 10^5 to 6 × 10^5 cells/ml in either standard MH, MHII, RPMI, or fetal bovine serum, and 90 μl was added to each well of the 96-well plate containing diluted peptide. Plates were wrapped twice in parafilm and incubated at 37°C for 18 to 24 hours. Wells were examined by eye against wells with no bacteria for signs of growth. MICs were reported as the minimum concentration with no observable growth. In cases where triplicate samples differed, the concentration supported by the median of the three replicates was reported.
A. baumannii 17978 Lab Stock
A. baumannii 17978 R2 Lab Stock
V. cholerae C6706 Lab Stock
P. aeruginosa ATCC 27853 ATCC
K. pneumonia ATCC 1705 ATCC
S. aureus USA100 Lab Stock
Excel spreadsheet with chemically synthesized peptide properties and biochemical data.
Excel spreadsheet with all SynCH SLAY data analysis and potency score predictions

Escherichia coli W3110 = type: cell-based; details: for Ec W3110 MIC MH: E. coli W3110, MH medium; for W3110 MIC MHII: E. coli W3110, MHII medium; for Ec W3110 MIC RPMI: E. coli W3110, RPMI medium
[4] = High-resolution LC-MS, percentage with intramolecular disulfide bond (%S-S); type: physicochemical
Description: Stock peptides were diluted into PBS (pH 7.4) at 0.1 mg/ml in a volume of 150 μl and placed into 2-ml autosampler vials with small volume inserts (Fisherbrand, 03-391-8). Samples were separated by a C8 LC column, and an extracted ion chromatogram was generated for the most prevalent charge state isotopes. Mass spectra were generated for each extracted LC peak using an Agilent Technologies 6546 Accurate Mass quadrupole orthogonal acceleration–time-of-flight LC-MS instrument. Analysis was performed using Agilent MassHunter Qualitative software v10. The isotope distribution for each LC peak from each sample was compared to predicted distributions created using Agilent’s Isotope Distribution Calculator. Percentages of molecules with disulfide bonds was determined by comparing the area under the curve for each LC peak containing a disulfide bond over the total area of all relevant peaks (sum area %) and reported as a mean of three technical replicates ± 1 SD.

[5] = Circular dichroism (CD) spectroscopy (secondary structure, aggregation); type: physicochemical; details: CD at 450 µg/ml to 50 µg/ml, 10 mM potassium phosphate pH 7.4
[6] = 100% fetal bovine serum, replicate 1
[7] = 100% fetal bovine serum, replicate 2
[8] = 100% fetal bovine serum, replicate 3

Compound	AB5075 MIC FBS [1, 6] [µg/mL]	AB5075 MIC FBS [1, 7] [µg/mL]	AB5075 MIC FBS [1, 8] [µg/mL]	AB5075 MIC MH ([1]; Mueller-Hinton, replicate 1) [µg/mL]	AB5075 MIC MH ([1]; Mueller-Hinton, replicate 2) [µg/mL]	AB5075 MIC MH ([1]; Mueller-Hinton, replicate 3) [µg/mL]	Ec W3110 MIC MH (Escherichia coli W3110) [µg/mL]	W3110 MIC MHII (Escherichia coli W3110) [µg/mL]	Ec W3110 MIC RPMI (Escherichia coli W3110) [µg/mL]	W3110 MIC RPMI (Escherichia coli W3110; W3110) [µg/mL]	%S-S [4] [%]	W3110 MIC MH (Escherichia coli W3110; W3110) [µg/mL]	also measured
CC(C)C[C@@H]1NC(=O)[C@H](CCCNC(=N)N)NC(=O)[C@H](C(C)C)NC(=O)[C@H](CCCCN)NC(=O)[C@@H]2CSSC[C@H](NC(=O)[C@H](CCCNC(=N)N)NC(=O)[C@H](CC(C)C)NC(=O)[C@H](CCCNC(=N)N)NC(=O)[C@H](C(C)C)NC(=O)[C@H](CCCNC(=N)N)NC(=O)[C@@H](N)CSSC[C@@H](C(=O)O)NC(=O)[C@H](CCCNC(=N)N)NC1=O)C(=O)N[C@@H](CCCNC(=N)N)C(=O)N[C@@H](CCCNC(=N)N)C(=O)N[C@@H](CCCNC(=N)N)C(=O)N[C@@H](CCCNC(=N)N)C(=O)N2 [SySA-5.17] (H-CRVRLRCRRRRCKVRLRC-OH; disulfide 1-18, 7-12 (inferred); N-terminus and C-terminus assumed)	32	32	32	4	4	4							AB5075 MIC FBS ([1]; 100% fetal bovine serum, median of triplicate): 32 µg/mL; fold less hemolytic (toxicity) than Protegrin-1 ([2]; hemolysis at 128 µg/ml): over 10 fold; Fold Change Hemolysis ([2]; hemolysis at 128 µg/ml, fold change relative to SySA-5): 2.4; fold less hemolytic (toxicity) than Protegrin-1 ([2]; hemolysis at 128 µg/ml, listed as SySA 5.17): greater than ten-fold; spectrum of activity [3]: broad-spectrum activity
CC(C)C[C@@H]1NC(=O)[C@H](CCCNC(=N)N)NC(=O)[C@H](C(C)C)NC(=O)[C@H](CCCNC(=N)N)NC(=O)[C@H](CC(C)C)NC(=O)[C@@H](N)CSSC[C@@H](C(=O)O)NC(=O)[C@H](C(C)C)NC(=O)[C@H](CCC(N)=O)NC(=O)[C@H](CC(C)C)NC(=O)[C@H](CO)NC(=O)[C@H](C(C)C)NC(=O)[C@H](CCCCN)NC(=O)[C@H](C(C)C)NC(=O)[C@H](CCCNC(=N)N)NC(=O)CNC(=O)[C@H](CCCNC(=N)N)NC(=O)[C@H](CCCNC(=N)N)NC(=O)[C@H](CC(N)=O)NC(=O)[C@H](CC(N)=O)NC1=O [SySA-5] (H-CLRVRLNNRRGRVKVSLQVC-OH; disulfide 1-20; N-terminus and C-terminus assumed)	>128	>128	>128	64	32	32	16	128	4	4	100		AB5075 MIC FBS ([1]; AB5075): > 128 µg/mL; AB5075 MIC MH ([1]; AB5075): 32 µg/mL; W3110 MIC MH (Escherichia coli W3110; E. coli W3110, standard Mueller-Hinton broth, 37°C, 18-24 h, median of n=3): 16 µg/mL
CC[C@H](C)[C@@H]1NC(=O)[C@H](CCCCN)NC(=O)[C@H](C(C)C)NC(=O)CNC(=O)[C@H](CCCNC(=N)N)NC(=O)[C@H](CCCNC(=N)N)NC(=O)[C@H](CCCNC(=N)N)NC(=O)[C@H](CC(N)=O)NC(=O)[C@H](CC(N)=O)NC(=O)[C@H](CC(C)C)NC(=O)[C@H](CCCNC(=N)N)NC(=O)[C@H](C(C)C)NC(=O)[C@H](CCCNC(=N)N)NC(=O)[C@H](C(C)C)NC(=O)[C@@H](N)CSSC[C@@H](C(=O)O)NC(=O)[C@H](C(C)C)NC(=O)[C@H](CCC(N)=O)NC(=O)[C@H](CC(C)C)NC(=O)[C@H](CO)NC1=O [SySA-49] (H-CVRVRLNNRRRGVKISLQVC-OH; disulfide 1-20; N-terminus and C-terminus assumed)							32	> 128	8	8	91.4	32	molar ellipticity of CD spectrum at different concentrations (aggregation) [5]: remained relatively constant regardless of increased concentration; also recorded: equivalent at increased and reduced concentrations
CC[C@H](C)[C@@H]1NC(=O)[C@H](CCCCN)NC(=O)[C@H](CC(C)C)NC(=O)CNC(=O)[C@H](CCCNC(=N)N)NC(=O)[C@H](CCCNC(=N)N)NC(=O)[C@H](CCCNC(=N)N)NC(=O)[C@H](CC(N)=O)NC(=O)[C@H](CC(N)=O)NC(=O)[C@H](CC(C)C)NC(=O)[C@H](CCCNC(=N)N)NC(=O)[C@H](C(C)C)NC(=O)[C@H](CCCNC(=N)N)NC(=O)[C@H](CC(C)C)NC(=O)[C@@H](N)CSSC[C@@H](C(=O)O)NC(=O)[C@H](C(C)C)NC(=O)[C@H](CCC(N)=O)NC(=O)[C@H](CC(C)C)NC(=O)[C@H](CO)NC1=O [SySA-61] (H-CLRVRLNNRRRGLKISLQVC-OH; disulfide 1-20; N-terminus and C-terminus assumed)							32	> 128	8	8	91.5	32	
RGGRLCYCRRRFCVCVGR (disulfide (positions not given here)) [Protegrin]							0.5	8	0.5		100		hemolysis [2]: 41.84%
